Source: US11547679B2, “Mitoriboscins: mitochondrial-based therapeutics targeting cancer cells, bacteria and pathogenic yeast” (LUNELLA BIOTECH, INC., priority 2017, dated 2023)
Converted amounts (≈) assume the structure as drawn.

What was measured:
[1] = system: MCF7 cells; assay: Seahorse XF96 metabolic flux: oxygen consumption rate (OCR), ATP; type: cell-based, human; conditions: for rank order potency to reduce maximal respiration and ATP production: MCF7, top 10 hits; for mitochondrial oxygen-consumption: MCF7, 72 hours treatment
Description: (§1) The present approach further involves methods of functional validation at step S105, during which a compound's function as a mitochondrial inhibitor may be confirmed. A number of methods may be used for functional validation, including, for example, metabolic flux analysis, mammosphere assays, viability assays, and antibiotic (anti-bacterial and/or anti-fungal) activity. For example, the inventors determined extracellular acidification rates (ECAR) and real-time oxygen consumption rates (OCR) for MCF7 cells using the Seahorse Extracellular Flux (XF96) analyzer (Seahorse Bioscience, MA, USA). MCF7 cells were maintained in DMEM supplemented with 10% FBS (fetal bovine serum), 2 mM GlutaMAX, and 1% Pen-Strep. 5,000 cells per well were seeded into XF96-well cell culture plates, and incubated overnight at 37° C. in a 5% CO2 humidified atmosphere. After 24 hours, cells were treated with selected compounds showing ATP-depletion without prominent cytotoxicity at various concentrations (or vehicle alone). After 72 hours of treatment, cells were washed in pre-warmed XF assay media (for OCR measurement, XF assay media was supplemented with 10 mM glucose, 1 mM Pyruvate, 2 mM L-glutamine and adjusted at pH 7.4). Cells were maintained in 175 μL/well of XF assay media at 37° C. in a non-CO2 incubator for 1 hour. During incubation, 25 μL of 80 mM glucose, 9 μM oligomycin, 1M 2-deoxyglucose (for ECAR measurement) and 25 μL of 10 μM oligomycin, 9 μM FCCP, 10 μM rotenone, 10 μM antimycin A (for OCR measurement) in XF assay media was loaded into the injection ports of the XFe-96 sensor cartridge. During the experiment, the instrument injected these inhibitors into the wells at a given time point, while ECAR/OCR was measured continuously. ECAR and OCR measurements were normalized by protein content (using the Sulphorhodamine B assay). Data sets were analyzed by XFe-96 software, using one-way ANOVA and Student's t-test calculations. All experiments were performed in triplicate, and results validated the mitochondrial inhibition effects of mitoriboscin compounds described herein. It should be appreciated that numerous methods are known for functional validation, and that persons of skill in the art may select one or more depending on the validation needs (e.g., other assays that measure or approximate mitochondrial function). The present approach involves methods of function validation of mitoriboscin compounds. For example, the inventors assessed functional validation of three candidates using the Seahorse Analyzer, which quantitatively measures oxygen consumption rate (OCR) and extracellular acidification rate (ECAR). OCR is a surrogate marker for OXPHOS and ECAR is a surrogate marker for glycolysis and L-lactate production.

[2] = system: MCF7 cells; assay: Mammosphere formation; type: cell-based, human; conditions: MCF7, 5 μM
Description: The present approach involves methods of testing compounds, and in particular mitoriboscins, for anti-cancer properties. As discussed above, vHTS and computational chemistry may be used to identify candidate mitochondrial inhibitors. Those candidates may be tested for specific anti-cancer properties. For examples, the inventors compared seven candidate compounds in parallel for their ability to inhibit mammosphere formation in MCF7 cells. […] For example, 23/G4 (Group 1) reduced mammosphere formation by 50% at this concentration. Similarly, 24/F9 (Group 2) and 24/D4 (Group 3), both reduced mammosphere formation by ˜90%.

[3] = system: MCF7 cell monolayers; assay: Cell viability of MCF7 cell monolayers; type: cell-based, human
Experimental: (§2) The present approach includes methods of confirming cell viability. Persons of skill in the art may select one or more methods for confirming cell viability suitable for the particular embodiment. The inventors initially used the Sulphorhodamine (SRB) assay, which is based on the measurement of cellular protein content. After treatment for 72 hours in 96-well plates, cells were fixed with 10% trichloroacetic acid (TCA) for 1 hour in the cold room, and were dried overnight at room temperature. Then, cells were incubated with SRB for 15 min, washed twice with 1% acetic acid, and air dried for at least 1 hour. Finally, the protein-bound dye was dissolved in a 10 mM Tris, pH 8.8 solution and read using the plate reader at 540-nm. Using the SRB assay, the inventors selected only the compounds depleting ATP levels without prominent cytotoxicity for further analysis. Prominent cytotoxicity was defined as fewer than 30% of cells still on the plate. Of course, embodiments employing other cell viability confirmation methodology may select compounds for further analysis based on other considerations as may be known in the art.
(§3) Based on this analysis, the inventors assessed the functional effects of the three candidates on overall viability in MCF7 cell monolayers and normal human fibroblasts (hTERT-BJ1 cells) (FIG. 6). […]

[4] = system: normal human fibroblasts (hTERT-BJ1 cells); assay: Cell viability of normal fibroblasts; type: cell-based; conditions: 5 μM
Experimental: as §2, §3

[5] = system: MCF7 cells; assay: Seahorse XF96 metabolic flux: extracellular acidification rate (ECAR), glycolysis; type: cell-based, human
Description: as §1, with “ECAR and OCR measurements were normalized by protein content (using the Sulphorhodamine B assay).” left out, “All experiments were performed in triplicate, and results validated the mitochondrial inhibition effects of mitoriboscin compounds described herein. It should be appreciated that numerous methods are known for functional validation, and that persons of skill in the art may select one or more depending on the validation needs (e.g., other assays that measure or approximate mitochondrial function). The present approach involves methods of function validation of mitoriboscin compounds.” left out, “OCR is a surrogate marker for OXPHOS and ECAR is a surrogate marker for glycolysis and L-lactate production.” left out

[6] = system: K. pneumoniae ATCC 13883; assay: MIC by broth dilution method; type: cell-based; conditions: K. pneumoniae ATCC 13883, 24 hours at 37° C.
Experimental: (§4) The minimal inhibitory concentration (MIC) of the antibacterial compounds may be determined using the broth dilution method, according to CLSI guidelines. Test compound solutions (or antibiotic solutions used as positive controls) were diluted, serially, with MHB medium. Then, the suspensions of the microorganisms, prepared from overnight cultures of bacteria in the MHB medium, at a concentration of 10^6 CFU/ml, were added to each dilution in a 1:1 ratio. McFarland standards were used as a reference to adjust the turbidity of microorganism suspensions. Growth (or lack thereof) of the microorganisms was determined after incubation for 24 hours at 37° C. by turbidimetry (wavelength of 600 nm). […] The susceptibility test by measurement of MIC was performed in triplicate and repeated three times independently.

[7] = system: P. auriginosa ATCC 27853; assay: MIC by broth dilution method; type: cell-based; conditions: P. auriginosa ATCC 27853, 24 hours at 37° C.
Experimental: as §4

[8] = system: Strept. pyogenes ATCC 19615; assay: MIC by broth dilution method; type: cell-based; conditions: Strept. pyogenes ATCC 19615, 24 hours at 37° C.
Experimental: as §4

[9] = system: MRSA ATCC 43300; assay: MIC by broth dilution method; type: cell-based, Methicillin-resistant Staphylococcus aureus
Experimental: as §4, with “nm). MIC 50 and MIC 99 are defined as the minimum inhibitory concentration of the compound required for 50% and 99% inhibition of bacterial growth.” for “nm).”, “independently. Statistical significance was determined using the Student's t-test and values of less than 0.05 were considered significant.” for “independently.”

MIC 50% [6] [µg/mL]	MIC 99% [6] [µg/mL]	MIC 50% [7] [µg/mL]	MIC 99% [7] [µg/mL]	MIC 50% [8] [µg/mL]	MIC 99% [8] [µg/mL]	Structure (SMILES)	rank order potency to reduce maximal respiration and ATP production ([1]; FIG. 10)	reduction of mammosphere formation [2] [%]	mitochondrial oxygen-consumption [1]	sensitivity of MRSA [9]	further results
–	–	–	–	–	–	OC1C(NCc2ccccc2)CCCC1Oc1ccccc1Oc1cccc(F)c1 (centres unmarked) [23/E9]	top 6	–	–	–	–
16 (≈ 37.7 µM)	32 (≈ 75.5 µM)	16 (≈ 37.7 µM)	32 (≈ 75.5 µM)	4 (≈ 9.44 µM)	8 (≈ 18.9 µM)	OC1C(NCc2ccccc2)CCCC1Oc1ccccc1Oc1ccc(Cl)cc1 (centres unmarked) [23/G4]	top 6	50	dose-dependently inhibited	sensitive	effect on overall cell viability of MCF7 monolayers ([3]; 500 nM and 2.5 μM): little or no effect; reduction of viability of MCF7 cells ([3]; 5 μM): 70%; effect on viability of hTERT-BJ1 cells [4]: no effect; reduction of ATP levels ([1]; MCF7, 500 nM): > 50%; reduction of ATP levels ([1]; MCF7, 2.5 μM): ~75%; reduction in ATP levels ([1]; MCF7, 5 μM, FIG. 10): greater than 75%; increase in glycolysis rates [5]: more than 1.5 fold
16 (≈ 34.3 µM)	32 (≈ 68.6 µM)	16 (≈ 34.3 µM)	32 (≈ 68.6 µM)	16 (≈ 34.3 µM)	32 (≈ 68.6 µM)	CCCc1ccc(OCc2ccccc2)c(CN2CCC3(CC2)CC(N(C)C)C(C)(O)CO3)c1 (centres unmarked) [24/D4]	–	~90	dose-dependently inhibited	sensitive	effect on glycolysis [5]: suppressed
32 (≈ 68.7 µM)	64 (≈ 137 µM)	>32	>64	32 (≈ 68.7 µM)	64 (≈ 137 µM)	CN1CCN(C2CCN(Cc3cc(C(C)(C)C)ccc3OCc3ccccc3)CCC2O)CC1 (centres unmarked) [24/F9]	top 6	~90	dose-dependently inhibited	–	effect on glycolysis [5]: suppressed
–	–	–	–	–	–	CN1CCCN(C2CCN(Cc3cc(Cl)ccc3OCc3ccccc3)CCC2O)CC1 (centres unmarked) [24/H6]	top 6	–	–	–	–
–	–	–	–	–	–	CN(C)C1CC2(CCN(Cc3cc(Cl)ccc3OCc3ccccc3)CC2)OCC1(C)O (centres unmarked) [24/H9]	top 6	–	–	–	–
–	–	–	–	–	–	CN(C)Cc1cccc(C2CCCN2Cc2ccccc2OCc2cccc(F)c2)n1 (centres unmarked) [25/B3]	top 6	–	–	–	–
–	–	–	–	–	–	CC1(C)S[C@@H]2[C@H](NC(=O)[C@H](N)c3ccc(O)cc3)C(=O)N2[C@H]1C(=O)O [AMOXICILLIN, reference compound]	–	–	–	resistant	–
–	–	–	–	–	–	C[C@H]1c2cccc(O)c2C(=O)C2=C(O)[C@]3(O)C(=O)C(C(N)=O)=C(O)[C@@H](N(C)C)[C@@H]3[C@@H](O)[C@@H]21 [DOXYCYCLINE, reference compound]	–	–	–	–	MIC50 [7]: 1 µg/mL (≈ 2.25 µM); MIC99 [7]: 2 µg/mL (≈ 4.5 µM)
